Where two headings read alike, the source gives them in different places.
What was measured:
[1] = test system: Tnf-α, Il-1β and Mmp-9 mRNA in mouse corneas; assay: Quantitative PCR analysis of mouse corneas; assay type: in vivo, C57BL/6 mice; conditions: DED mice, twice a day for 7 days
[2] = test system: human corneal epithelial cells (HCEC); conditions: 1 μmol/L; TNF-α (10 ng/mL), 550 mOsm; after incubation for 3 h
human SMS1 = molecular target: T1, human SMS1 (Homo sapiens, UniProt Q86VZ5); assay: purified SMS enzyme inhibitory assay in vitro; assay type: biochemical
T1 sequence (Q86VZ5 1-413): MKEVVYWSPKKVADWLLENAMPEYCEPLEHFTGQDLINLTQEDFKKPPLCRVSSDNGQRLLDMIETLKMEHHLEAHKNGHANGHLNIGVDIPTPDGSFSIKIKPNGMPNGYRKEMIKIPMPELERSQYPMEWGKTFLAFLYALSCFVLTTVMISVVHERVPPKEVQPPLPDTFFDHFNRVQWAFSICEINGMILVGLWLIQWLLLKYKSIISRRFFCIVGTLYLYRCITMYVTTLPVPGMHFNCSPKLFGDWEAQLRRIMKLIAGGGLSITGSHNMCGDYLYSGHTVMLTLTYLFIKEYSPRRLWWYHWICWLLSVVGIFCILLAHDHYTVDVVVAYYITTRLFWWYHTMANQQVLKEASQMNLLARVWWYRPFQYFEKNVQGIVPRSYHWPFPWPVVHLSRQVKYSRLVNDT

in vivo = conditions: male, SD, rat, topical or ocular, 16 ug
murine DED model [3] = assay: Tear volume measurement; assay type: in vivo, C57BL/6 mice; conditions: DED mice
[4] = test system: human corneal epithelial cells (HCEC); assay: Cell viability and toxicity assay; assay type: cell-based; conditions: within 25 μmol/L; 48 h
[5] = test system: TNF-α protein expression in HCEC; assay: Western blot of TNF-α protein expression in HCEC under hyperosmotic stress; assay type: cell-based, human; conditions: 1 μmol/L; hyperosmotic 550 mOsm
[6] = test system: TNFR1-Caspase3 activation in HCEC; assay: Western blot of TNFR1, caspase3 and cleaved-caspase3 in HCEC; assay type: cell-based, human; conditions: 14l 1/3 and 1 μmol/L; TNF-α 10 ng/mL, 550 mOsm
murine DED model [7] = assay: Corneal fluorescein staining in murine DED model; assay type: in vivo, C57BL/6 mice; conditions: DED mice; 14l low dose 0.001% twice a day for 7 days
[8] = test system: SM synthesis (SMS activity) in HCEC; assay: Cellular SM synthesis inhibitory assay in HCEC; assay type: cell-based, human; conditions: for EC50: Homo sapiens, HCEC, read-out: SM synthesis inhibitory EC50 in HCEC
[9] = SD rats
human SMS2 = molecular target: T2, human SMS2 (Homo sapiens, UniProt Q8NHU3); assay: purified SMS enzyme inhibitory assay in vitro; assay type: biochemical
T2 sequence (Q8NHU3 1-365): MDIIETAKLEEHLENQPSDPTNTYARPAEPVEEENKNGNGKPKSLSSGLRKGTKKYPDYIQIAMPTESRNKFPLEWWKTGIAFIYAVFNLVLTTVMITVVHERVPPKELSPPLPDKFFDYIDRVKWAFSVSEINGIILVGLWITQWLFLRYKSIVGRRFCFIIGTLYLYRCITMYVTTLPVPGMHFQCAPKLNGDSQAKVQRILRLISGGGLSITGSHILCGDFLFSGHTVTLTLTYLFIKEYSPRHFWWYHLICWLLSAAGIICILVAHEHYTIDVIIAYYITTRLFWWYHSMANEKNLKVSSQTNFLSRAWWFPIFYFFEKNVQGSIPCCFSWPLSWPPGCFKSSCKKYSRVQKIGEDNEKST

[10] = test system: human corneal epithelial cells (HCEC); assay: cells; conditions: 24 h, read-out: EC50 of protective effect on HCEC viability
[11] = test system: human corneal epithelial cells (HCEC); conditions: 14l 1/3 and 1 μmol/L, CsA 1 μmol/L; TNF-α 10 ng/mL, 550 mOsm, 5 h
[12] = test system: lipid content of meibomian glands; assay: LC-MS/MS lipidomic analysis of murine meibomian gland tissue; assay type: in vivo, C57BL/6 mice; conditions: DED mice
[13] = 14l 0.001% and 0.025%, CsA 0.05%
[14] = Conjunctiva, single drop 16 μg/eye
[15] = Meibomian glands, single drop 16 μg/eye

IC50 (human SMS1): 16000 nM
inhibition at 100 µM (human SMS1; read-out: SMS1 Inhibition @ 100 μmol/L (%)): 87%
Cmax (in vivo; conjunctiva): 358 ng/g
Tmax (in vivo; conjunctiva): 0.25 h
half-life (in vivo; conjunctiva): 1.3 h
Cmax (in vivo; cornea): 3050 ng/g
Tmax (in vivo; cornea): 1 h
half-life (in vivo; cornea): 1.11 h
Cmax (in vivo; meibomian glands): 2730 ng/g
Tmax (in vivo; meibomian glands): 1 h
half-life (in vivo; meibomian glands): 4.32 h
EC50 ([8]; 6 h): 300 nM
EC50 [8]: 0.131 µg/mL
AUC0‒t [9, 14]: 489.73 ng·h/g
AUC0‒∞ [9, 14]: 564.99 ng·h/g
AUC0‒t ([9]; Cornea, single drop 16 μg/eye): 4339.41 ng·h/g
AUC0‒∞ ([9]; Cornea, single drop 16 μg/eye): 4567.46 ng·h/g
AUC0‒t [9, 15]: 14379.61 ng·h/g
AUC0‒∞ [9, 15]: 14670.67 ng·h/g
detection in blood and retina ([9]; single drop 16 μg/eye): not detected in the blood and retina
IC50 (human SMS2): 28 nM
Selectivity ratio (human SMS2; IC50, SMS1/IC50, SMS2): 589
LLE (human SMS2; pIC50, SMS2 – ClogP): 2.21
inhibition at 1 µM (human SMS2; read-out: SMS2 Inhibition @ 1 μmol/L (%)): 95%
Compound: CCCCCCCCOc1ccccc1COc1ccsc1C(=O)Nc1cccnc1 [14l, 3-((2-(Octyloxy)benzyl)oxy)-N-(pyridin-3-yl)thiophene-2-carboxamide]
Mmp-9 mRNA expression in cornea [1, 13]: decreased significantly in all treatment groups
Tnf-α mRNA expression in cornea [1, 13]: decreased significantly in all treatment groups
Il-1β mRNA expression in cornea ([1]; 14l high dose 0.025% or CsA 0.05%): reduced only in 14l high dose group and CsA treatment group
time-dependent protective effect in HCEC [2]: apparent and durative protective effect
tear volume (Schirmer's test) (murine DED model [3]; 14l high dose 0.025% or CsA (Zirun®) 0.05%, twice a day for 7 days): improved significantly
tear volume (Schirmer's test), 14l low dose (murine DED model [3]; 14l low dose 0.001% twice a day for 7 days): not in 14l low dose group
HCEC viability (MTT) [4]: less influence on the cell viability
TNF-α protein expression [5]: inhibited TNF-α protein expression
TNF-α-induced TNFR1-Caspase3 activation [6]: effectively prevent TNF-α-induced TNFR1-Caspase3 activation
corneal fluorescein scores, 14l low dose (murine DED model [7]): higher than the two other treatment groups but lower than the DED control group
effect on SMS activity of HCEC ([8]; 1 μmol/L): efficient SMS inhibitory activities
adverse effect during the PK study ([9]; single drop 16 μg/eye): No adverse effect
ocular tissue distribution ([9]; single drop 16 μg/eye in 50% HP-β-CD): distributed mainly in the meibomian glands, conjunctiva and cornea
EC50 [10]: 611 nM
HCEC population integrity and early apoptosis proportion [11]: a higher integrity of HCEC population and a less early apoptosis proportion
levels of triglycerides (TG) and cholesterol esters (ChE) in meibomian glands ([12]; all treatment groups): not impacted in all treatment groups
proportion of very long chain SM species in meibomian glands ([12]; eye drops twice a day for 7 days): reduced the proportion of very long chain SM species
ceramide content in meibomian glands ([12]; high dosage of 14l (0.025%)): did not induce an extreme increase and accumulation for ceramide

Source: paper PMC11873635 (Acta Pharmaceutica Sinica. B, 2024)
